This test addresses α-Glucosidase from Saccharomyces cerevisiae (Saccharomyces cerevisiae, UniProt P53341). Description: In vitro α-glucosidase inhibition study. Conditions: for IC50: IC50, μM, average value ± standard deviation, p-nitrophenyl α-D-glucoside substrate, pH 6.8, 37 °C; for inhibition at 25 µM: pH 6.8, read-out: Inhibition at 25 μM (%).

The structures appear in SMILES notation.

Sequence of α-Glucosidase from Saccharomyces cerevisiae (P53341 whole entry): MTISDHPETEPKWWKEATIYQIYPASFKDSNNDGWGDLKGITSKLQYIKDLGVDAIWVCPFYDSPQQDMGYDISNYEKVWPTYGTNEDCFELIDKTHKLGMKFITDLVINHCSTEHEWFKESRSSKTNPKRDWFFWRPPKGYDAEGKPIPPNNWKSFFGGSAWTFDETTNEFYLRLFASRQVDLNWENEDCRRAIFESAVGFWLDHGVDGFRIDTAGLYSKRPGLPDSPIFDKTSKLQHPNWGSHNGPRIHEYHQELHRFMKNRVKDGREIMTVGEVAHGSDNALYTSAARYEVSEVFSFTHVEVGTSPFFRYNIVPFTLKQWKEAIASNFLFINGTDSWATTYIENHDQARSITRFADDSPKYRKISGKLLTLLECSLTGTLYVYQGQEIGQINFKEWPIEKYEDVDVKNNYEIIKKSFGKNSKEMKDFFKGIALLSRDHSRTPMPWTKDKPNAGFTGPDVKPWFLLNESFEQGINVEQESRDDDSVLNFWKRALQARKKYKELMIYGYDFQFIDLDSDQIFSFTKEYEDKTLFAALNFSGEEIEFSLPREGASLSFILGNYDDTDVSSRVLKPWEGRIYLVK

As for `COc1ccc(-c2coc3c(Cn4ncc5ccccc54)c(O)ccc3c2=O)cc1` [Compound 13b], the IC50 – broadly, the concentration that gives 50% inhibition – was 17.1 ± 2.8 µM and the inhibition (commonly the percentage by which the read-out fell short of the control) at 25 µM was determined as 73%.

Take `Cc1cc(=O)oc2c(Cn3cnc4ccccc43)c(O)ccc12` [Compound 10b]: half-maximal inhibition (IC50) required 21.1 ± 0.7 µM and the inhibition at 25 µM worked out at 69.3%.

For the compound `COc1ccc(-c2c(C)oc3c(Cn4cnc5ccccc54)c(O)ccc3c2=O)cc1` [Compound 10f], half-maximal inhibition (IC50) required 25.5 ± 7.9 µM and the inhibition at 25 µM is 48.6%.

For the compound `Cc1cc(C)n(Cc2c(O)ccc3c(=O)c(-c4ccc(O)cc4)coc23)n1` [Compound 12c], the IC50 worked out at 27.4 ± 1.9 µM and the inhibition at 25 µM amounted to 42.8%.

As for `O=c1c(-c2ccc(OC(F)(F)F)cc2)coc2cc(O)ccc12` [Compound 6j, 7-hydroxy-4′-trifluoromethoxyisoflavone], the inhibition at 25 µM stood at 39%.

As to `COc1ccc(-c2coc3c(Cn4nc(C)cc4C)c(O)ccc3c2=O)cc1` [Compound 12d], half-maximal inhibition (IC50) required 20.9 ± 2.5 µM and the inhibition at 25 µM turned out to be 67.3%.

In the case of `O=c1c(-c2ccc(O)cc2)coc2c(Cn3ccnc3)c(O)ccc12` [Compound 9d], the IC50 worked out at 27 ± 0.2 µM and the inhibition at 25 µM came to 42%.

Consider `COc1ccc(-c2coc3c(Cn4cc5ccccc5n4)c(O)ccc3c2=O)cc1` [Compound 14b], for which the midpoint of inhibition, the IC50, lay at 23.9 ± 2.3 µM and the inhibition at 25 µM turned out to be 50.3%.

Turning to `COc1ccc(-c2coc3c(Cn4cnc5ccccc54)c(O)ccc3c2=O)cc1` [Compound 10d], the IC50 was found to be 20.6 ± 2.1 µM and the inhibition at 25 µM turned out to be 64.6%.

Turning to `O=c1c(-c2ccc(OC(F)(F)F)cc2)coc2c(Cn3cnc4ccccc43)c(O)ccc12` [Compound 10h], the IC50 came out at 9.5 ± 1.6 µM and the inhibition at 25 µM amounted to 99.1%.

`Cc1cc(=O)oc2c(Cn3ccnc3)c(O)ccc12` [Compound 9b]: the IC50 is 23.6 ± 1.8 µM and the inhibition at 25 µM was 53.4%.

As to `Cc1cc(C)n(Cc2c(O)ccc3c(=O)c(-c4ccc(OC(F)(F)F)cc4)coc23)n1` [Compound 12i], inhibition was half-maximal at 5.8 ± 0.2 µM (IC50) and the inhibition at 25 µM amounted to 94%.

With `O=c1c(-c2ccc(OC(F)(F)F)cc2)coc2c(Cn3cccn3)c(O)ccc12` [Compound 11j], the half-maximal inhibitory concentration (IC50) stood at 14.3 ± 2 µM and the inhibition at 25 µM was 84.1%.

The record behind these values is paper PMC11367390 (RSC Advances, 2024).
